{"source": "paper PMC8451327", "about": "“Paradoxical Augmentation of Experimental Spondyloarthritis by RORC Inhibition in HLA-B27 Transgenic Rats” (Frontiers in Immunology, 2021)", "origin": "cited, not measured here", "key": {"intestinal inflammation": {"test_system": "intestinal inflammation", "parameters": "method as in PMID 30972425"}, "normal mice": {"test_system": "normal mice", "parameters": "method as in PMID 30972425"}, "[1]": {"test_system": "ankylosing spondylitis (AS)"}, "[2]": {"test_system": "psoriatic arthritis (PsA)"}}}
{"compound": "COc1ccc2c(n1)CCN(C(=O)C1CC(CC(=O)O)C1)[C@H]2C(=O)Nc1cc(F)c2c(c1)CCC2(C)C", "note": "(some centres unmarked) [TAK-828F]", "values": [{"measurement": "Gene expression of IL17A, IL17F and IL-22", "setting": "intestinal inflammation", "value": "suppressed/decreased"}, {"measurement": "Intestinal inflammation", "setting": "intestinal inflammation", "value": "suppressed"}, {"measurement": "Th17 and Th17/Th1 cell population in mesenteric lymph nodes", "setting": "intestinal inflammation", "value": "significantly reduced"}, {"measurement": "Numbers of Th17 cells and ILC3s in the lamina propria", "setting": "normal mice", "value": "did reduce"}]}
{"compound": "Secukinumab: anti-IL-17A mAb", "values": [{"measurement": "Signs and symptoms of ankylosing spondylitis", "setting": "[1]", "value": "reduced"}, {"measurement": "Signs and symptoms of psoriatic arthritis", "setting": "[2]", "value": "reduced"}]}
{"compound": "ixekizumab: interleukin-17A specific monoclonal antibody", "values": [{"measurement": "Clinical efficacy in AS", "setting": "[1]", "value": "proven clinical efficacy"}, {"measurement": "Clinical efficacy in PsA", "setting": "[2]", "value": "proven clinical efficacy"}]}
